Source: patent US10676436B2, “NLRX1 ligands” (Landos Biopharma, Inc., priority 2018, dated 2020)

Molecular target: T1, Human NLRX1 (NLRX1-WT) (Homo sapiens, UniProt Q86UT6)
T1 construct: made in house; host or cells: Pichia pastoris
Experiment: Surface plasmon resonance binding to NLRX1-WT
Experimental: NLRX1 production and purification. Human NLRX1 (www.uniprot.org; UniProtKB—Q86UT6 (NLRX1 HUMAN)) was cloned into E. coli, amplified and transfected in Pichia pastoris. P. pastoris was plated onto adenine selective media. Stable transfected colonies were selected and grown within YPD broth at 30° C. for 24 hours, 240 RPM shaking. Starter culture was used to inoculate base media (1% yeast extract, 2% peptone, 1% sorbitol, 2% yeast nitrogen base) containing biotin and buffered with potassium phosphate. Inoculated base media was incubated for 48 hours at 30° C., 240 RPM. P. pastoris was then pelleted by centrifugation and resuspended in expression media (1% sorbitol, 2% yeast nitrogen base) containing biotin and buffered with potassium phosphate. Culture was induced daily for protein production through addition of methanol and incubated for a total of 4 days at 28° C., 240 RPM. After incubation, cells were pelleted by centrifugation and lysed by sonication. Recombinant NLRX1 protein was purified by fast protein liquid chromatography (AktaPrime) using immobilized metal affinity chromatography. Fractions of protein were eluted in 1 mL aliquots and evaluated for NLRX1 content. A mutated NLRX1 protein was generated using similar methods to disrupt binding within the predicted binding site through altering four residues to alanine (D677A, F680A, F681A, and E684A).
A Biacore T200 was used to evaluate binding to the NLRX1 protein. NLRX1-WT and NLRX1-Mutant were used as proteins to immobilize onto the CM5 sensor chip. NLRX1-WT was diluted in 10 mM sodium acetate buffer at pH 4.0 and immobilized onto the flow cell to a level of ˜3700 RU, using standard amine coupling chemistry. NLRX1-Mutant was diluted in 10 mM sodium acetate buffer at pH 4.0 and immobilized onto the flow cell to a level of ˜3100 RU, using standard amine coupling chemistry. 20 mM MOPS, 150 mM NaCl, 5 mM sodium acetate, 1 mM EDTA, 0.05% Tween-20, pH 8.0 buffer (Running buffer) was used as the immobilization running buffer. Based on the immobilized response values, theoretical Rmax values were calculated. The Rmax values assume 1:1 interaction mechanism. Overnight kinetics were performed for all analytes binding to the immobilized proteins. The kinetics experiments were performed in the μL/min. presence of running buffer+1% DMSO. The flow rate of all solutions was maintained at 50 Analyte concentrations were 0 μM, 2.5 μM, 5 μM 10 μM 20 μM and 40 μM.

T1 sequence (Q86UT6 87-975): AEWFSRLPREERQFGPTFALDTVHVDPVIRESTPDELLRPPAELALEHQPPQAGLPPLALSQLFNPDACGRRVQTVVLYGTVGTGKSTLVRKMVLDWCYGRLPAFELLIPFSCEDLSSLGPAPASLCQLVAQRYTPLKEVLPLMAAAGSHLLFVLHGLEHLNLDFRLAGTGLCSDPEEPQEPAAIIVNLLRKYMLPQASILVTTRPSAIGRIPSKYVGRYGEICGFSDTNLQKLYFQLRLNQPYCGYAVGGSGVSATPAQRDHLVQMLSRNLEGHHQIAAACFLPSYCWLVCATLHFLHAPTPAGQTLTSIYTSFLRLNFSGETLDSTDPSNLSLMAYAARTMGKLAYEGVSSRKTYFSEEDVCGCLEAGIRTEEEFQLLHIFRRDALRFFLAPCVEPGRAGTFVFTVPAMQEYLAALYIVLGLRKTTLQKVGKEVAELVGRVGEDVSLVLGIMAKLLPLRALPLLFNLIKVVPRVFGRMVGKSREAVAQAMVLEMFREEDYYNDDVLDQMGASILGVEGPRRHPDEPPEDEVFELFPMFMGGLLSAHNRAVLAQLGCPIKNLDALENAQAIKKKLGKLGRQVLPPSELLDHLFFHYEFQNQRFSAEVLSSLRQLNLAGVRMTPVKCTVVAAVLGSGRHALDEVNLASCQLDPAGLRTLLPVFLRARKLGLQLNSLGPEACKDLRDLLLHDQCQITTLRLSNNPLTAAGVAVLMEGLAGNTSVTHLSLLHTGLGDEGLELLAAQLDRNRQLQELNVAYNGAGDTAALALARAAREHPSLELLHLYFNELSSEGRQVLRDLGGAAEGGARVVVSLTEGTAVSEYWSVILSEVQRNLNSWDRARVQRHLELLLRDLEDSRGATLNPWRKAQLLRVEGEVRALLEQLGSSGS

In the case of `Cc1cccc(Oc2cc(Oc3cccc(C)n3)cc(Oc3cccc(C)n3)c2)n1` [NX-13, 1,3,5-tris (6-methylpyridin-2-yloxy) benzene], the “binding to NLRX1 by surface plasmon resonance (in words)” value is reported as “bind to NLRX1” and the Kd (1:1 binding model fitting, read-out: steady state dissociation constant KD) is reported as 30.2 µM.
